Laboratory results taken from ChEMBL document CHEMBL3351846, “Synthesis and SAR studies of bis-chromenone derivatives for anti-proliferative activity against human cancer cells” (Bioorg Med Chem Lett, 2014).
Where a name gives a salt, the structure may show the parent alone.

Assays:
Type in all cases: functional, cell-based
NCI-H23 = assay: Anti-proliferative activity against human NCI-H23 cells by XTT assay
ACHN = assay: Anti-proliferative activity against human ACHN cells by XTT assay
[1] = Anti-proliferative activity against human HCT15 cells by XTT assay; details: HCT-15
[2] = Anti-proliferative activity against human NUGC3 cells by XTT assay; details: NUGC-3
MDA-MB-231 = assay: Anti-proliferative activity against human MDA-MB-231 cells by XTT assay
[3] = Anti-proliferative activity against human PC3 cells by XTT assay; details: PC-3

IC50 (NCI-H23) | IC50 (ACHN) | IC50 (MDA-MB-231) | SMILES | IC50 [1] | IC50 [2] | IC50 [3]
> 10 µM | 3.96 µM | > 10 µM | CC(C)CCOc1cccc2occ(Cc3coc4ccccc4c3=O)c(=O)c12 | > 10 µM | > 10 µM | > 10 µM
1.93 µM | 0.34 µM | > 10 µM | COc1cccc2occ(Cc3coc4ccccc4c3=O)c(=O)c12 | 3.43 µM | 3.19 µM | 3.49 µM
7.55 µM | 0.74 µM | > 10 µM | O=c1c(Cc2coc3cccc(O)c3c2=O)coc2ccccc12 | > 10 µM | 3.27 µM | 5.95 µM
> 10 µM | 3.99 µM | > 10 µM | O=c1c(Cc2coc3cccc(OCc4ccccc4)c3c2=O)coc2ccccc12 | > 10 µM | 7.22 µM | 4.83 µM
> 10 µM | 1.46 µM | > 10 µM | CC(C)COc1cccc2occ(Cc3coc4ccccc4c3=O)c(=O)c12 | > 10 µM | > 10 µM | 1.72 µM

The remaining lines, values behind:

SMILES | IC50 (NCI-H23) | IC50 (ACHN) | IC50 (MDA-MB-231) | IC50 [1] | IC50 [2] | IC50 [3]
O=c1c(Cc2coc3cccc(OCC4CCCCC4)c3c2=O)coc2cc(O)ccc12 | 2.15 µM | 2.1 µM | 3.22 µM | 2.11 µM | 3.22 µM | 4.25 µM
O=C1c2c(OCC3CCCCC3)cccc2OCC1Cc1coc2ccccc2c1=O (stereo not drawn) | 9.49 µM | 8.2 µM | 9.11 µM | 8.36 µM | 8.42 µM | 9.38 µM
O=c1c(Cc2coc3cccc(OCC4CCCCC4)c3c2=O)coc2ccccc12 | 4.13 µM | 4.23 µM | 4.11 µM | 4.24 µM | 3.53 µM | 4.51 µM
O=c1c(CCc2coc3ccccc3c2=O)coc2ccccc12 | > 10 µM | > 10 µM | > 10 µM | > 10 µM | > 10 µM | > 10 µM
O=c1c(/C=C/c2coc3ccccc3c2=O)coc2ccccc12 | > 10 µM | > 10 µM | > 10 µM | > 10 µM | > 10 µM | > 10 µM
Cc1ccc2c(=O)c(Cc3coc4cccc(OCC5CCCCC5)c4c3=O)coc2c1 | 3.22 µM | 2.25 µM | 3.32 µM | 2.22 µM | 2.15 µM | 2.44 µM
COc1cccc2c1C(=O)c1c(O)c3c(c(O)c1C2=O)C[C@@](O)(C(=O)CO)C[C@@H]3O[C@H]1C[C@H](N)[C@H](O)[C@H](C)O1 [DOXORUBICIN HYDROCHLORIDE] | 0.49 µM |  | 0.6 µM | 0.43 µM | 0.38 µM | 
O=c1c(Cc2coc3cccc(OCC4CCCCC4)c3c2=O)coc2cc(Cl)ccc12 | > 10 µM | > 10 µM | > 10 µM | > 10 µM | > 10 µM | > 10 µM
COc1ccc2c(=O)c(Cc3coc4cccc(OCC5CCCCC5)c4c3=O)coc2c1 | 1.32 µM | 1.35 µM | 1.2 µM | 1.45 µM | 1.44 µM | 1.12 µM
O=c1c(Cc2coc3ccccc3c2=O)coc2ccccc12 | 1.4 µM | 0.51 µM | > 10 µM | > 10 µM | 7.77 µM | 7.4 µM
